Read-outs that look alike come from different tables or passages of the source.
Tests used:
DARPP-32 = conditions: chronic administration in rats; cited from earlier work
Thr34-DARPP-32 = assay: In vivo phosphorylation of DARPP-32 at Thr34 in mouse striatum (immunoblot, phosphorylation state-specific antibodies); design: species or system mice; conditions: for Thr34-DARPP-32 phosphorylation level (mean): eticlopride 0.5, haloperidol 0.2, clozapine 5 mg/kg i.p., time 0 control = 100
Protocol: (§1) Male C57/BL6 mice (groups of six) were administered intraperitoneal injections of one of three anti-psychotic compounds, haloperidol (a typical anti-psychotic), clozapine (an atypical anti-psychotic), or eticlopride (a selective dopamine D2 receptor antagonist). All animals were sacrificed by decapitation at 15, 30, or 60 minutes post-injection. After decapitation, the heads were immediately immersed in liquid nitrogen for 6 seconds to inactivate all protein activity. The brains were then dissected on an ice-cold surface and the striata removed and sonicated in 750 μl of 1% SDS, and then boiled for 10 minutes. Levels of phosphorylated DARPP-32, CREB, and ERK1 and ERK2 were then determined.
(§2) In order to determine levels of phosphoproteins in brain tissue, aliquots of the brain homogenate were loaded onto 10% polyacrylamide gels and the proteins separated by SDS/PAGE analysis, and then transferred to poly(vinylidene difluoride) membranes as described by Towbin and colleagues (Towbin, H. et al. 1979. Proc. Natl. Acad. Sci. USA 76:4350-4354). The effect of the drugs on the phosphorylation of DARPP-32 at two sites (Thr34 and Thr75), ERK1 at two sites (Thr202 and Tyr204), ERK2 at two sites (Thr185 and Tyr187), and CREB at one site (Ser133) was assessed using phosphorylation state-specific antibodies according to standard methods. Anti-phospho-ERK1 and anti-phospho-ERK2 antibodies were obtained from Cell Signaling Technology (Beverly, Mass.). Anti-phospho-CREB antibody was obtained from Upstate Biotechnology (Lake Placid, N.Y.). Anti-phospho-DARPP32 antibodies were used that had been produced according to the methods disclosed in U.S. patent application Ser. No. 09/419,379, by Bibb et al., entitled “Methods of Identifying Agents That Regulate Phosphorylation/Dephosphorylation in Dopamine Signaling,” filed Oct. 15, 1999, and Ser. No. 09/687,959, by Bibb et al., entitled “Methods of Identifying Agents That Regulate Phosphorylation/Dephosphorylation in Dopamine Signaling,” filed Oct. 13, 2000, (each of which is incorporated herein by reference in its entirety). These methods were used to produce phosphorylation state-specific antibodies having specificity for Thr34-phosphorylated and Thr75-phosphorylated DARPP-32.

Thr202- and Tyr204- ERK1 = assay: In vivo phosphorylation of ERK1 in mouse striatum (immunoblot, phosphorylation state-specific antibodies); conditions: for Thr202- and Tyr204- ERK1 phosphorylation level (mean): eticlopride 0.5, haloperidol 0.2, clozapine 5 mg/kg i.p., time 0 control = 100; for levels of phospho-ERK1 (in words): haloperidol 0.2 mg/kg, eticlopride 0.5 mg/kg
Ser133-CREB = assay: In vivo phosphorylation of CREB in mouse striatum (immunoblot, phosphorylation state-specific antibodies); design: species or system mice; conditions: for Ser133-CREB phosphorylation level (mean): eticlopride 0.5, haloperidol 0.2, clozapine 5 mg/kg i.p., time 0 control = 100; for levels of phospho-CREB (in words): haloperidol 0.2 mg/kg, eticlopride 0.5 mg/kg
Protocol: as §1, §2

Thr75-DARPP-32 = assay: In vivo phosphorylation of DARPP-32 at Thr75 in mouse striatum (immunoblot, phosphorylation state-specific antibodies); conditions: for Thr75-DARPP-32 phosphorylation level (mean): eticlopride 0.5, haloperidol 0.2, clozapine 5 mg/kg i.p., time 0 control = 100
Thr185- and Tyr187- ERK2 = assay: In vivo phosphorylation of ERK2 in mouse striatum (immunoblot, phosphorylation state-specific antibodies); design: species or system mice; conditions: for Thr185- and Tyr187- ERK2 phosphorylation level (mean): eticlopride 0.5, haloperidol 0.2, clozapine 5 mg/kg i.p., time 0 control = 100; for levels of phospho-ERK2 (in words): haloperidol 0.2 mg/kg, eticlopride 0.5 mg/kg
Protocol: as §1, §2

DOI-induced behaviors = conditions: rats; 30 min pretreatment i.p.; fixed dose of DOI 3.0 mg/kg; cited from earlier work
c-fos = conditions: dorsal striatum; cited from earlier work

Compound: N[C@@H]1C[C@H]1c1ccccc1 (racemic) [tranylcypromine]
- frontal cortex levels of DARPP-32 immunoreactivity (DARPP-32): significant increases

Compound: CN1CCN(C2=Nc3cc(Cl)ccc3Nc3ccccc32)CC1 [Clozapine, clozapine]
- Thr34-DARPP-32 phosphorylation level (mean) (Thr34-DARPP-32; 15 min post-injection): 188
- Thr34-DARPP-32 phosphorylation level (mean) (Thr34-DARPP-32; 30 min post-injection): 209
- Thr34-DARPP-32 phosphorylation level (mean) (Thr34-DARPP-32; 60 min post-injection): 222
- Thr202- and Tyr204- ERK1 phosphorylation level (mean) (Thr202- and Tyr204- ERK1; 15 min post-injection): 90
- Thr202- and Tyr204- ERK1 phosphorylation level (mean) (Thr202- and Tyr204- ERK1; 30 min post-injection): 75
- Thr202- and Tyr204- ERK1 phosphorylation level (mean) (Thr202- and Tyr204- ERK1; 60 min post-injection): 33
- Ser133-CREB phosphorylation level (mean) (Ser133-CREB; 15 min post-injection): 51
- Ser133-CREB phosphorylation level (mean) (Ser133-CREB; 30 min post-injection): 62
- Ser133-CREB phosphorylation level (mean) (Ser133-CREB; 60 min post-injection): 57
- Thr75-DARPP-32 phosphorylation level (mean) (Thr75-DARPP-32; 15 min post-injection): 179
- Thr75-DARPP-32 phosphorylation level (mean) (Thr75-DARPP-32; 30 min post-injection): 216
- Thr75-DARPP-32 phosphorylation level (mean) (Thr75-DARPP-32; 60 min post-injection): 203
- Thr185- and Tyr187- ERK2 phosphorylation level (mean) (Thr185- and Tyr187- ERK2; 15 min post-injection): 62
- Thr185- and Tyr187- ERK2 phosphorylation level (mean) (Thr185- and Tyr187- ERK2; 30 min post-injection): 41
- Thr185- and Tyr187- ERK2 phosphorylation level (mean) (Thr185- and Tyr187- ERK2; 60 min post-injection): 15

Compound: CCc1cc(Cl)c(OC)c(C(=O)NC[C@@H]2CCCN2CC)c1O [Eticlopride, eticlopride]
- Thr34-DARPP-32 phosphorylation level (mean) (Thr34-DARPP-32; 15 min post-injection): 192
- Thr34-DARPP-32 phosphorylation level (mean) (Thr34-DARPP-32; 30 min post-injection): 226
- Thr34-DARPP-32 phosphorylation level (mean) (Thr34-DARPP-32; 60 min post-injection): 190
- Thr202- and Tyr204- ERK1 phosphorylation level (mean) (Thr202- and Tyr204- ERK1; 15 min post-injection): 223
- Thr202- and Tyr204- ERK1 phosphorylation level (mean) (Thr202- and Tyr204- ERK1; 30 min post-injection): 207
- Thr202- and Tyr204- ERK1 phosphorylation level (mean) (Thr202- and Tyr204- ERK1; 60 min post-injection): 170
- levels of phospho-ERK1 (in words) (Thr202- and Tyr204- ERK1): significant increases
- time after administration at which phospho-CREB levels returned to control levels (Ser133-CREB): 60 min
- Ser133-CREB phosphorylation level (mean) (Ser133-CREB; 15 min post-injection): 167
- Ser133-CREB phosphorylation level (mean) (Ser133-CREB; 30 min post-injection): 146
- Ser133-CREB phosphorylation level (mean) (Ser133-CREB; 60 min post-injection): 123
- levels of phospho-CREB (in words) (Ser133-CREB): significant increases
- Thr75-DARPP-32 phosphorylation level (mean) (Thr75-DARPP-32; 15 min post-injection): 80
- Thr75-DARPP-32 phosphorylation level (mean) (Thr75-DARPP-32; 30 min post-injection): 70
- Thr75-DARPP-32 phosphorylation level (mean) (Thr75-DARPP-32; 60 min post-injection): 80
- DARPP-32 phosphorylation at Thr75 (in words) (Thr75-DARPP-32; at 30 minutes): decreased
- time after administration at which phospho-ERK2 levels returned to control levels (Thr185- and Tyr187- ERK2): 30 min
- Thr185- and Tyr187- ERK2 phosphorylation level (mean) (Thr185- and Tyr187- ERK2; 15 min post-injection): 132
- Thr185- and Tyr187- ERK2 phosphorylation level (mean) (Thr185- and Tyr187- ERK2; 30 min post-injection): 97
- Thr185- and Tyr187- ERK2 phosphorylation level (mean) (Thr185- and Tyr187- ERK2; 60 min post-injection): 96
- levels of phospho-ERK2 (in words) (Thr185- and Tyr187- ERK2): significant increases

Compound: O=C(CCCN1CCC(O)(c2ccc(Cl)cc2)CC1)c1ccc(F)cc1 [Haloperidol, haloperidol]
- frontal cortex levels of DARPP-32 immunoreactivity (DARPP-32): without effects
- Thr34-DARPP-32 phosphorylation level (mean) (Thr34-DARPP-32; 15 min post-injection): 195
- Thr34-DARPP-32 phosphorylation level (mean) (Thr34-DARPP-32; 30 min post-injection): 196
- Thr34-DARPP-32 phosphorylation level (mean) (Thr34-DARPP-32; 60 min post-injection): 155
- Thr34 phosphorylation (in words) (Thr34-DARPP-32; at 60 minutes): no statistical difference from controls
- Thr34 phosphorylation (in words) (Thr34-DARPP-32; for up to 30 minutes): increased
- effect on the three behavioral effects of DOI (head-and-body shakes, forepaw tapping, skin-jerks) (DOI-induced behaviors): antagonize
- Thr202- and Tyr204- ERK1 phosphorylation level (mean) (Thr202- and Tyr204- ERK1; 15 min post-injection): 231
- Thr202- and Tyr204- ERK1 phosphorylation level (mean) (Thr202- and Tyr204- ERK1; 30 min post-injection): 187
- Thr202- and Tyr204- ERK1 phosphorylation level (mean) (Thr202- and Tyr204- ERK1; 60 min post-injection): 169
- levels of phospho-ERK1 (in words) (Thr202- and Tyr204- ERK1): significant increases
- time after administration at which phospho-CREB levels returned to control levels (Ser133-CREB): 30 min
- Ser133-CREB phosphorylation level (mean) (Ser133-CREB; 15 min post-injection): 148
- Ser133-CREB phosphorylation level (mean) (Ser133-CREB; 30 min post-injection): 131
- Ser133-CREB phosphorylation level (mean) (Ser133-CREB; 60 min post-injection): 114
- levels of phospho-CREB (in words) (Ser133-CREB): significant increases
- inducing c-fos expression, as compared to clozapine (c-fos): much more effective
- DARPP-32 phosphorylation at Thr75 (in words) (Thr75-DARPP-32): without effect
- Thr75-DARPP-32 phosphorylation level (mean) (Thr75-DARPP-32; 15 min post-injection): 133
- Thr75-DARPP-32 phosphorylation level (mean) (Thr75-DARPP-32; 30 min post-injection): 144
- Thr75-DARPP-32 phosphorylation level (mean) (Thr75-DARPP-32; 60 min post-injection): 138
- time after administration at which phospho-ERK2 levels returned to control levels (Thr185- and Tyr187- ERK2): 30 min
- Thr185- and Tyr187- ERK2 phosphorylation level (mean) (Thr185- and Tyr187- ERK2; 15 min post-injection): 151
- Thr185- and Tyr187- ERK2 phosphorylation level (mean) (Thr185- and Tyr187- ERK2; 30 min post-injection): 114
- Thr185- and Tyr187- ERK2 phosphorylation level (mean) (Thr185- and Tyr187- ERK2; 60 min post-injection): 107
- levels of phospho-ERK2 (in words) (Thr185- and Tyr187- ERK2): significant increases

Compound: COc1cccc([C@H](O)C2CCN(CCc3ccc(F)cc3)CC2)c1OC [M100907]
- effect on the three behavioral effects of DOI (head-and-body shakes, forepaw tapping, skin-jerks) (DOI-induced behaviors): antagonize

Compound: CCNC(=O)N1CCN(CCCC(c2ccc(F)cc2)c2ccc(F)cc2)CC1 [amperozide]
- effect on the three behavioral effects of DOI (head-and-body shakes, forepaw tapping, skin-jerks) (DOI-induced behaviors): antagonize

Compound: COc1cc(C(C)=O)ccc1OCCCN1CCC(c2noc3cc(F)ccc23)CC1 [iloperidone]
- effect on the three behavioral effects of DOI (head-and-body shakes, forepaw tapping, skin-jerks) (DOI-induced behaviors): antagonize

Compound: CN(C)CCCN1c2ccccc2CCc2ccccc21 [imipramine]
- frontal cortex levels of DARPP-32 immunoreactivity (DARPP-32): significant increases

Compound: CN1CC[C@]23c4c5ccc(O)c4O[C@H]2[C@@H](O)C=C[C@H]3[C@H]1C5 [morphine]
- frontal cortex levels of DARPP-32 immunoreactivity (DARPP-32): without effects

Compound: CCN1CCC[C@H]1CNC(=O)c1c(OC)ccc(Br)c1OC [remoxipride]
- effect on the three behavioral effects of DOI (head-and-body shakes, forepaw tapping, skin-jerks) (DOI-induced behaviors): antagonize

Compound: Cc1nc2n(c(=O)c1CCN1CCC(c3noc4cc(F)ccc34)CC1)CCCC2 [risperidone]
- effect on the three behavioral effects of DOI (head-and-body shakes, forepaw tapping, skin-jerks) (DOI-induced behaviors): antagonize

Compound: Cc1nc2sccn2c(=O)c1CCN1CCC(=C(c2ccc(F)cc2)c2ccc(F)cc2)CC1 [ritanserin]
- effect on the three behavioral effects of DOI (head-and-body shakes, forepaw tapping, skin-jerks) (DOI-induced behaviors): antagonize

Compound: N alpha MeArg-Lys-Pro-Trp-Tle-Leu [NT1]
- effect on the three behavioral effects of DOI (head-and-body shakes, forepaw tapping, skin-jerks) (DOI-induced behaviors): antagonize
